Values of other authors in patent US7713673B2, “Fixing liquid, toner fixing method, toner fixing device, image forming method, and image forming apparatus” (priority 2005, dated 2010).

Details: acute oral toxicity; given in brackets as a material property of the component

Row | Compound | LD50 [mg/kg]
1 | CCCCOC(=O)CCCCCCCCC(=O)OCCCC [dibutyl sebacate] | 12800
2 | CCO [ethanol] | 15000
3 | CC(O)CO (stereo not shown) [propylene glycol] | 15000
4 | CCCCCCCCCCCC(=O)OCC [ethyl laurate] | 5000
5 | CC(C)COC(=O)CCCCC(=O)OCC(C)C [diisobutyl adipate] | 12800
6 | CC(O)CCO (stereo not shown) [1,3-butanediol] | 10000
7 | CCOCCOC(=O)CCC(=O)OCCOCC [diethoxyethyl succinate] | 5000
